Columns and labels:
[1] = target: T1, FGFR2^∂123 (Homo sapiens, UniProt P21802); assay: anisotropy measurement, FGF1-lumio binding to FGFR2 ECD without Fc-tag; details: >1,000 fold molar excess of SSR; FGF1-lumio 1 μM
T1 construct: we purified the entire extracellular domain of FGFR2 without Fc-tag (FGFR2^∂123); made in house
Method: To assess whether SSR inhibits the binding of FGF1 to its binding pocket, we purified the entire extracellular domain of FGFR2 without Fc-tag (FGFR2^∂123) and measured the tumbling speed (as a parameter of anisotropy) of a fluorescent lumio-tagged FGF1 (FGF1-lumio; constant concentration of 1 μM) in the presence of varying concentrations of FGFR2^∂123 without (blue) or with (red) SSR (1 mM). When FGFR2^∂123 was added to FGF1-lumio, the tumbling speed of the ligand/receptor complex was slower than of FGF-lumio alone, because of its larger size.
One hallmark of allosteric interactions is the phenomenon of ‘probe-dependence’ i.e., variations in the magnitude and direction of an allosteric interaction depending on the nature of the orthosteric ligand-receptor complex with which the modulator is interacting (May et al., 2007). To determine whether the effects of SSR on ^125I-FGF2 binding in the SPA were dependent on the configuration of the engineered FGFR/Fc fusion protein plated on an artificial substrate, we next studied whether SSR inhibited the binding of a fluorescent lumio-tagged FGF1 (FGF1-lumio) to a purified ECD of FGFR2 without the Fc-tag (FGFR2^∂123), by measuring the tumbling speed as a parameter of anisotropy. When FGFR2^∂123 was added to FGF1-lumio, the tumbling speed of the ligand/receptor complex was slower than of FGF-lumio alone because of its larger size. […]

[2] = test system: FGFR2^∂23-Y328D; assay: FGF2-induced ERK1/2 phosphorylation in HEK293 cells, FGFR2 Y328D; format: cell-based, human; details: Erk1/2 western blot densitometry IC50
Method: HEK293 cells were either transiently of stably transfected (using FuGENE 6, Roche) with hFGFR2IIIca or hFGFR2IIIca-Y328D cloned in pcDNA3 (Invitrogen). Stably transfected cells were grown in G418 (400 μg/ml) containing medium. Before stimulation, the cells were starved overnight in DMEM (0% serum), and pre-incubated with […] at the required concentration. The cells were subsequently stimulated with FGF2 (concentration between 0.5-10 ng/ml) for 5 min at 37° C. with or without SSR or SU5402 at 1 μM. After washing with ice-cold phosphate-buffered saline containing phosphatase inhibitors (Roche), cells were lysed in RIPA buffer (Tris 30 mM HCl pH 7.5, 150 mM NaCl, 1 mM EDTA, 1% triton-X, 0.5% w/v deoxycholate, containing phophatase and protease inhibitors as described by the manufacturer (Roche)). Cell lysates were centrifuged at 12,000 g for 10 min, and the supernatants were collected. Proteins were separated on Novex polyacrylamide gels (Invitrogen, Carlsbad, Calif.) and subsequently transferred onto Hybond ECL nitrocellulose membranes (Amersham Pharmacia). Following incubation with 5% non-fat milk powder in PBS, the membranes were incubated overnight at 4° C. with the following antibodies: phospho-ERK1/2 (CST:9101), phospho-FRS2 (CST:3861), phospho-PLCγ (CST:2821) and FGFR2 (F0300, Sigma).

[3] = test system: human umbilical vein endothelial cells (HUVECs); assay: I125-FGF2 binding assay on HUVECs; details: intact cells, SSR even at high μM concentrations
[4] = target: T2, FGFR1 (PAE-FGFR1) (Homo sapiens, UniProt P11362); assay: I125-FGF2 binding assay on PAE-FGFR1 cells; details: porcine aortic endothelial cells overexpressing FGFR1; SSR even at high μM concentrations
T2 construct: or the expression of the entire intact receptor in its native environment; expressed in transfected cells; host or cells: porcine aortic endothelial cells (PAE)

[5] = test system: HUVEC; assay: HUVEC in vitro angiogenesis; format: cell-based, human; details: low nanomolar range
Method: Collagen/matrigel gels are prepared by distributing in each well of a chamberslide (Biocoat Cellware collagen, Type I, 8-well culturesides: Becton dickinson 354630), 160 μl of 1/6 diluted matrigel (Growth factor reduced Matrigel: Becton dickinson 356230) in collagen I (rat Tail collagene, type I: Becton dickinson 354236). Polymerisation occurs at 37° C. for 1 h. Then, 15.10^3 HUVEC are added per well in 400 μl EBM medium (Clonetics C3121)+2% FCS+hEGF 10 μg/ml. Endothelial cells are stimulated with 10 ng/ml of FGF2 (R&D, 133-FB-025), FGF4 (R&D, 235-F4-025) or FGF19 (R&D, 969-FG-025) for 24 h at 37° C. in a CO2 chamber. Then, total length of pseudotubules is quantified using a bioimaging system (Imagenia Biocom, Courtaboeuf, France).

[6] = target: T3, FGFR4 (Homo sapiens, UniProt P22455); assay: FGF2 binding to FGFR4 in intact cells; details: receptor expressed in intact cells
T3 construct: expressed in transfected cells; host or cells: murine pre-B 300-19 cells

[7] = target: T4, FGFR1-ECD (FGFR1^∂123/Fc) (Homo sapiens, UniProt P11362); assay: scintillation proximity binding assay (SPA), 125I-FGF2 to FGFR1-ECD/Fc
T4 construct: FGFR1-ECD, consisting of the three Ig-like domains D1-3, coupled to a Fc-fragment (FGFR1^∂123/Fc)
Text: The objective of this study was to develop low molecular weight chemical compounds that bind to the FGFR extracellular domain (ECD) and inhibit FGFR signaling. Given that it is challenging to envisage how a small compound could interact with a much larger polypeptide (i.e. FGF) via simple steric hindrance for the orthosteric site, multiple ligand binding assay formats were utilized to determine whether any identified compounds were acting orthosterically of via an allosteric mechanism. We initially developed a high-throughput scintillation proximity binding assay (SPA) to identify compounds that inhibit the binding of ^125I-FGF2 to FGFR1-ECD, consisting of the three Ig-like domains D1-3, coupled to a Fc-fragment (FGFR1^∂123/Fc).

T3 sequence (P22455 22-802): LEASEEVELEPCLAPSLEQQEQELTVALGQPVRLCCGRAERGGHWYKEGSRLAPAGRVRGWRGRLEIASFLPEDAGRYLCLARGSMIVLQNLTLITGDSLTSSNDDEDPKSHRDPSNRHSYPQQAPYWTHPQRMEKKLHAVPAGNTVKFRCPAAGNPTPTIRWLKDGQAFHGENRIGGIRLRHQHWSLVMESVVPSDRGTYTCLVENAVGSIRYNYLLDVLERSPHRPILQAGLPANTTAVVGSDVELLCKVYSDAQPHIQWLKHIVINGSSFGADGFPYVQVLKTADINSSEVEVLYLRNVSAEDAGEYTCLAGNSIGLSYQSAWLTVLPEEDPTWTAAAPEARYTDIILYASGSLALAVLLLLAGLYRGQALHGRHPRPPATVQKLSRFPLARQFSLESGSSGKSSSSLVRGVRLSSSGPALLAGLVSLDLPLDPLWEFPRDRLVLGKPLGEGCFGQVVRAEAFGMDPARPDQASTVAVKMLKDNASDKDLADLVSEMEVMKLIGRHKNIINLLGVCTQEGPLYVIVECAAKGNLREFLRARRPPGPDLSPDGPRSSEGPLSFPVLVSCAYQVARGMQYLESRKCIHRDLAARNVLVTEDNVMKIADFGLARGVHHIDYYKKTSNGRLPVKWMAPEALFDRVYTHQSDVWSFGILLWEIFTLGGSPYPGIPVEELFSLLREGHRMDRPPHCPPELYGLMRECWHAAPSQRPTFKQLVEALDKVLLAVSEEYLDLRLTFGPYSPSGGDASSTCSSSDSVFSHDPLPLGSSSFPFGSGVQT
T2 sequence (P11362 22-822): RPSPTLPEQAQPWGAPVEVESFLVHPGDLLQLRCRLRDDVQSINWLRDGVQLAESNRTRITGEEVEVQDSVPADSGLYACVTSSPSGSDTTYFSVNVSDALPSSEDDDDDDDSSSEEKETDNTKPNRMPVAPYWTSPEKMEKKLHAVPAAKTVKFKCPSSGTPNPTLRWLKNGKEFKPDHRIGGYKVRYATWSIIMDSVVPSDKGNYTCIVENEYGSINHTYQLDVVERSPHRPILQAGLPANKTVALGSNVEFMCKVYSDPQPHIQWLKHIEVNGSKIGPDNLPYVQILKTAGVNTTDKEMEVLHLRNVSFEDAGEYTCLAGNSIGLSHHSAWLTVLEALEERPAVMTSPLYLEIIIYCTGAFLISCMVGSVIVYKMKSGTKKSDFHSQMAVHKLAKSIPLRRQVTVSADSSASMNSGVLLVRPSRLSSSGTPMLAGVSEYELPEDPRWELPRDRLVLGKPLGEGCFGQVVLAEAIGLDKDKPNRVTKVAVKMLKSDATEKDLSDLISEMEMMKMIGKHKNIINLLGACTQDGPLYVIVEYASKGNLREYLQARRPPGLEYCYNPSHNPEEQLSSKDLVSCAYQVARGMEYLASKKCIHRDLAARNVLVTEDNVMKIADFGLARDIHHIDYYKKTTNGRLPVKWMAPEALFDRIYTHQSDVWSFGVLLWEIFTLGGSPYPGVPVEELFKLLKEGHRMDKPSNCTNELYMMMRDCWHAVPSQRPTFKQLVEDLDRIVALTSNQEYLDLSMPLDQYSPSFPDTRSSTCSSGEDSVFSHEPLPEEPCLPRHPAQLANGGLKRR
T4 sequence (P11362 22-376 limits assumed): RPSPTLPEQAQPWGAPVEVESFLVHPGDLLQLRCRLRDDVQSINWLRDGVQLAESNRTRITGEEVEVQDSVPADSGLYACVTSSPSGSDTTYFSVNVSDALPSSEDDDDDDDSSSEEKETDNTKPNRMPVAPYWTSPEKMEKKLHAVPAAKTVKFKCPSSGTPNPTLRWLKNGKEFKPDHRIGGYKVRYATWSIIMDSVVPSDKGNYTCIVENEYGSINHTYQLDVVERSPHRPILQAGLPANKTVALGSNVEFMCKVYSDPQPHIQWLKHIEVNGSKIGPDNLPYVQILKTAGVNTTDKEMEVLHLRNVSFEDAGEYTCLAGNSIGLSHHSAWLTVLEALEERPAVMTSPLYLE
T1 sequence (P21802 22-377 limits assumed): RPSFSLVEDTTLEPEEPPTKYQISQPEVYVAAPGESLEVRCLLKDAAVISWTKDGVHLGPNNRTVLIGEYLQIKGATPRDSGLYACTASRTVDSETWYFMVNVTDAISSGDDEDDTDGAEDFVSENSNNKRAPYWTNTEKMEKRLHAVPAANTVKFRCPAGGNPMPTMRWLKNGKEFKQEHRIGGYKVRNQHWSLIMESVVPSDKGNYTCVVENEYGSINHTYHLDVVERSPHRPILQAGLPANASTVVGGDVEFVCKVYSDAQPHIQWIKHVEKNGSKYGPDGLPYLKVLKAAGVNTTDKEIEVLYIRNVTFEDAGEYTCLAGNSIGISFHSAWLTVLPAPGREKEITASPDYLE

With `COc1c(C)c(C(=O)c2ccc(N)c(C(=O)[O-])c2)n2ccccc12.[Na+]` [SSR] the “tumbling speed (anisotropy) of FGF1-lumio/FGFR2^∂123 complex” value [1] was “failed to alter the tumbling speed of the complex”, the “sensitivity to SSR inhibition, FGFR2-Y328D compared to FGFR2-WT” value [2] was “about 5 times less sensitive” and the “inhibition of I^125-FGF2 binding to its receptor” value [3] was “unable to inhibit I^125-FGF2 binding”. The “inhibition of I^125-FGF2 binding to its receptor” value [4] was “unable to inhibit I^125-FGF2 binding”, the “FGF2-induced HUVEC in vitro angiogenesis” value [5] was “blocks FGF2-induced HUVEC angiogenesis” and the “binding of FGF2 to FGFR4” value [6] was “failed to antagonize”. For the same compound, the “inhibition of ^125I-FGF2 binding to FGFR1-ECD” value [7] was “inhibited ^125I-FGF2 binding”.
